Measured values from patent US20190352276A1, “INHIBITORS OF BRUTON'S TYROSINE KINASE” (Joint Stock Company "Biocad", priority 2016, published 2019).

Experiment: Chemical stability in artificial gastric fluid (SGF without enzymes); further: time not given here
Settings: 10 μM in SGF without enzymes, pH=1.4, 37° C.

| SMILES | Amount of substance in the sample in % (chemical stability) [%] |
| --- | --- |
| C=CC(=O)N1CCC[C@@H](n2nc(-c3ccc(C(=O)Nc4cc(C(F)(F)CC)ccn4)cc3)c3cncc(F)c32)C1 [BCD-BTK -214, (R)-4-(1-(1-acryloylpiperidin-3-yl)-7-fluoro-1H-pyrazolo[4,3-c]pyridin-3-yl)-N-(4-(1,1-difluoropropyl)pyridin-2-yl)benzamide] | 100 |
| C=CC(=O)N1CCC[C@@H](n2nc(-c3ccc(C(=O)Nc4cc(C(F)(F)CC)ccn4)cc3)c3cncc(Cl)c32)C1 [BCD-BTK -215, (R)-4-(1-(1-acryloylpiperidin-3-yl)-7-chloro-1H-pyrazolo[4,3-c]pyridin-3-yl)-N-(4-(1,1-difluoropropyl)pyridin-2-yl)benzamide] | 100 |
| C=CC(=O)N1CCC[C@@H](n2nc(-c3ccc(Oc4cccnc4C#N)cc3)c3cncc(C#N)c32)C1 [BCD-BTK -216, (R)-1-(1-acryloylpiperidin-3-yl)-3-(4-(2-cyanopyridin-3-yloxy)phenyl)-1H-pyrazolo[4,3-c]pyridine-7-carbonitrile] | 96.3 |
| C=CC(=O)N1CCC[C@@H](n2nc(-c3ccc(Oc4ccncc4C#N)cc3)c3cncc(F)c32)C1 [BCD-BTK -217, (R)-4-(4-(1-(1-acryloylpiperidin-3-yl)-7-fluoro-1H-pyrazolo[4,3-c]pyridin-3-yl)phenoxy)nicotinonitrile] | 95.3 |
| C=CC(=O)N1CCC[C@@H](n2nc(-c3ccc(Oc4cccnc4C#N)cc3)c3cncc(Cl)c32)C1 [BCD-BTK -218, 3-(4-{7-chloro-1-[1-(prop-2-enoyl)piperidin-3-yl]-1H-pyrazolo[4,3-c]pyridin-3-yl}phenoxy)pyridine-2-carbonitrile] | 96 |
| C=CC(=O)N1CCC[C@@H](n2nc(-c3ccc(Oc4ccncc4)cc3)c3cncc(C#N)c32)C1 [BCD-BTK - 123, (R)-1-(1-acryloylpiperidin-3-yl)-3-(4(pyridin-4-yloxy)phenyl)-1H-pyrazolo[4,3-c]pyridin-7-carbonitrile] | 97 |
| C=CC(=O)N1CCC[C@@H](n2nc(-c3ccc(Oc4ccncc4)cc3)c3cncc(Cl)c32)C1 [BCD-BTK - 125, (R)-1-(1-acryloylpiperidin-3-yl)-7-chloro-3-(4-(pyridin-4-yloxy)phenyl)-1H-pyrazolo[4,3-c]pyridine] | 100 |
| C=CC(=O)N1CCC[C@@H](n2nc(-c3ccc(Oc4ccncc4)cc3)c3c(N)ncc(C#N)c32)C1 [BCD-BTK - 134, (R)-1-(1-acryloylpiperidin-3-yl)-4-amino-3-(4-(pyridin-4-yloxy)phenyl)-1H-pyrazolo[4,3-c]pyridin-7-carbonitrile] | 100 |
| C=CC(=O)N1CCC[C@@H](n2nc(-c3ccc(Oc4ccncc4)cc3)c3c(N)ncc(Cl)c32)C1 [BCD-BTK - 139, (R)-1-(1-acryloylpiperidin-3-yl)-7-chloro-3-(4-(pyridin-4-yloxy)phenyl)-1H-pyrazolo[4,3-c]pyridin-4-amine] | 100 |
| C=CC(=O)N1CCC[C@@H](n2nc(-c3ccc(C(=O)Nc4cccc(F)n4)cc3)c3cncc(F)c32)C1 [BCD-BTK - 248, (R)-4-(1-(1-acryloylpiperidin-3-yl)-7-fluoro-1H-pyrazolo[4,3-c]pyridin-3-yl)-N-(6-fluoropyridin-2-yl)benzamide] | 100 |
| C=CC(=O)N1CCC[C@@H](n2nc(-c3ccc(C(=O)Nc4ncccc4F)cc3)c3cncc(F)c32)C1 [BCD-BTK - 249, (R)-4-(1-(1-acryloylpiperidin-3-yl)-7-fluoro-1H-pyrazolo[4,3-c]pyridin-3-yl)-N-(3-fluoropyridin-2-yl)benzamide] | 100 |
| C=CC(=O)N1CCC[C@@H](n2nc(-c3ccc(C(=O)Nc4cccc(F)n4)cc3)c3c(N)ncc(Cl)c32)C1 [BCD-BTK - 250, (R)-4-(1-(1-acryloylpiperidin-3-yl)-4-amino-7-chloro-1H-pyrazolo[4,3-c]pyridin-3-yl)-N-(6-fluoropyridin-2-yl)benzamide] | 100 |
| C=CC(=O)N1CCC[C@@H](n2nc(-c3ccc(C(=O)Nc4cc(C(F)(F)F)ccn4)cc3)c3c(N)ncc(Cl)c32)C1 [BCD-BTK - 251, (R)-4-(1-(1-acryloylpiperidin-3-yl)-4-amino-7-chloro-1H-pyrazolo[4,3-c]pyridin-3-yl)-N-(4-(trifluoromethyl)pyridin-2-yl)benzamide] | 100 |

The remaining lines, values ahead:

| Amount of substance in the sample in % (chemical stability) [%] | SMILES |
| --- | --- |
| 94.4 | C=CC(=O)N1CCC[C@@H](n2nc(-c3ccc(C(=O)Nc4cc(C(F)(F)CCC)ccn4)cc3)c3cncc(Cl)c32)C1 [BCD-BTK - 252, (R)-4-(1-(1-acryloylpiperidin-3-yl)-7-chloro-1H-pyrazolo[4,3-c]pyridin-3-yl)-N-(4-(1,1-difluorobutyl)pyridin-2-yl)benzamide] |
| 100 | C=CC(=O)N1CCC[C@@H](n2nc(-c3ccc(C(=O)Nc4cc(C(F)(F)CCC)ccn4)cc3)c3c(N)ncc(Cl)c32)C1 [BCD-BTK - 254, (R)-4-(1-(1-acryloylpiperidin-3-yl)-4-amino-7-chloro-1H-pyrazolo[4,3-c]pyridin-3-yl)-N-(4-(1,1-difluorobutyl)pyridin-2-yl)benzamide] |
| 100 | C=CC(=O)N1CCC[C@@H](n2nc(-c3ccc(Oc4cccnc4C(N)=O)cc3)c3cncc(F)c32)C1 [BCD-BTK - 255, (R)-3-(4-(1-(1-acryloylpiperidin-3-yl)-7-fluoro-1H-pyrazolo[4,3-c]pyridin-3-yl)phenoxy)picolinamide] |
| 100 | CC#CC(=O)N1CC(n2nc(-c3ccc(Oc4ccncc4)cc3)c3cncc(Cl)c32)C1 [BCD-BTK - 281, 1-(3-(7-chloro-3-(4-(pyridin-4-yloxy)phenyl)-1H-pyrazolo[4,3-c]pyridin-1-yl)azetidin-1-yl)but-2-yn-1-one] |
| 100 | C=CC(=O)N1CC(n2nc(-c3ccc(Oc4ccncc4)cc3)c3cncc(Cl)c32)C1 [BCD-BTK - 282, 1-(3-(7-chloro-3-(4-(pyridin-4-yloxy)phenyl)-1H-pyrazolo[4,3-c]pyridin-1-yl)azetidin-1-yl)prop-2-en-1-one] |
| 100 | CC#CC(=O)N1CC[C@@H](Cn2nc(-c3ccc(C(=O)Nc4ccccn4)cc3)c3cncc(Cl)c32)C1 [BCD-BTK - 286, (R)-4-(1-((1-(but-2-ynoyl)pyrrolidin-3-yl)methyl)-7-chloro-1H-pyrazolo[4,3-c]pyridin-3-yl)-N-(pyridin-2-yl)benzamide] |
| 100 | CC#CC(=O)N1CC[C@H](Cn2nc(-c3ccc(C(=O)Nc4ccccn4)cc3)c3cncc(Cl)c32)C1 [BCD-BTK - 287, (S)-4-(1-((1-(but-2-ynoyl)pyrrolidin-3-yl)methyl)-7-chloro-1H-pyrazolo[4,3-c]pyridin-3-yl)-N-(pyridin-2-yl)benzamide] |
| 100 | C=CC(=O)N1CCC[C@@H](n2nc(-c3cnc(C(=O)Nc4cc(C(F)(F)CCC)ccn4)nc3)c3cncc(Cl)c32)C1 [BCD-BTK - 292, (R)-5-(1-(1-acryloylpiperidin-3-yl)-7-chloro-1H-pyrazolo[4,3-c]pyridin-3-yl)-N-(4-(1,1-difluorobutyl)pyridin-2-yl)pyrimidine-2-carboxamide] |
